Assay results taken from patent publication US8269043B2, “Bicyclic aryl sphingosine 1-phosphate analogs” (Biogen Idec MA Inc., priority 2008, dated 2012).

System: circulating lymphocytes
Assay: Lymphopenia assay: circulating lymphocytes after oral gavage
Format: in vivo
Conditions: C57bl/6 male mice, oral gavage 0.5 and 5 mg/kg in 30% HPCD, blood 5 and 24 hours after administration; for ED50: Mus musculus, Lymphocyte, po
Experimental: Measurement of circulating lymphocytes: Compounds were dissolved in 30% HPCD. Mice (C57bl/6 male, 6-10 week-old) were administered 0.5 and 5 mg/kg of a compound via oral gavage. 30% HPCD was included as a negative control.
Blood was collected from the retro-orbital sinus 5 and 24 hours after drug administration under short isoflurane anesthesia. Whole blood samples were subjected to hematology analysis. Peripheral lymphocyte counts were determined using an automated analyzer (HEMAVET™ 3700). Three mice were used to assess the lymphocyte depletion activity of each compound screened.
Compounds of formula (I) induced full lymphopenia at times as short as 3 hours or less to as long as 48 hours or more; for example, 4 to 36 hours, or 5 to 24 hours. In some cases, a compound of formula induced full lymphopenia at 5 hours and partial lymphopenia at 24 hours. The dosage required to induce lymphopenia can be in the range of, e.g., 0.001 mg/kg to 100 mg/kg; or 0.01 mg/kg to 10 mg/kg. The dosage can be 10 mg/kg or less, such as 5 mg/kg or less, 1 mg/kg or less, or 0.1 mg/kg or less

NC(CO)(CO)c1ccc2cc(Oc3cccc(C(F)(F)F)c3)ccc2c1 [Example 191, 2-Amino-2-(6-(3-(trifluoromethyl)phenoxy)naphthalen-2-yl)propane-1,3-diol]
ED50: > 5 mg/kg

CC(C)(C)c1ccc(Oc2ccc3cc([C@@](C)(N)CO)ccc3c2)cc1 [Example 179, (R)-2-Amino-2-(6-(4-tert-butylphenoxy)naphthalen-2-yl)propan-1-ol]
ED50: 0.5 to 5 mg/kg

C[C@](N)(CO)c1ccc2cc(Oc3ccc(Cl)cc3)ccc2c1 [Example 173, (R)-2-Amino-2-(6-(4-chlorophenoxy)naphthalen-2-yl)propan-1-ol]
ED50: 0.5 to 5 mg/kg

NC(CO)(CO)c1ccc2c(C(F)(F)F)c(O[C@H]3C[C@H](COCc4ccccc4)C3)ccc2c1 [Example 73]
Lymphopenia (ED50 mg/kg): <0.5 mg/kg

C[C@](N)(CO)c1ccc2c(C(F)(F)F)c(OC3CCC4(CCCCC4)CC3)ccc2c1 [Example 139, (2R)-2-amino-2-(6-(spiro[5.5]undecan-3-yloxy)-5-(trifluoromethyl)naphthalen-2-yl)propan-1-ol]
ED50: < 0.5 mg/kg

C[C@](N)(CO)c1ccc2c(C(F)(F)F)c(O[C@H]3CC[C@@H](C4CCCC4)CC3)ccc2c1 [Example 100, (R)-2-Amino-2-[6-(cis-4-cyclopentyl-cyclohexyloxy)-5-trifluoromethyl-naphthalen-2-yl]-propan-1-ol]
ED50: > 5 mg/kg

CC(C)(C)[C@H]1CC[C@H](Oc2ccc3cc([C@@](C)(N)CO)ccc3c2-c2ccccc2)CC1 [Example 229, (R)-2-amino-2-(6-(trans-4-tert-butylcyclohexyloxy)-5-phenylnaphthalen-2-yl)propan-1-ol]
ED50: > 5 mg/kg

CCC(C)C1CCC(Oc2ccc3cc([C@@](C)(N)CO)ccc3c2)CC1 (stereo partly drawn) [Example 97, (R)-2-Amino-2-[6-(4-sec-butyl-cyclohexyloxy)-naphthalen-2-yl]-propan-1-ol]
ED50: 0.5 to 5 mg/kg

CC(C)(C)[C@H]1CC[C@H](Oc2ccc3cc([C@@](C)(N)CO)ccc3c2Cl)CC1 [Example 236, (R)-2-amino-2-(6-(trans-4-tert-butylcyclohexyloxy)-5-chloronaphthalen-2-yl)propan-1-ol]
ED50: < 0.5 mg/kg

CC(C)(C)[C@H]1CC[C@H](Oc2ccc3cc([C@@](C)(N)CO)ccc3c2F)CC1 [Example 242, (R)-2-amino-2-(6-(trans-4-tert-butylcyclohexyloxy)-5-fluoronaphthalen-2-yl)propan-1-ol]
ED50: < 0.5 mg/kg

C[C@](N)(CO)c1ccc2cc(O[C@H]3C[C@@H](COCc4ccccc4)C3)ccc2c1 (relative stereo) [Example 77]
Lymphopenia (ED50 mg/kg): <0.5 mg/kg

C[C@](N)(CO)c1ccc2c(C(F)(F)F)c(O[C@H]3CC[C@H](C(F)(F)F)CC3)ccc2c1 [Example 266, (R)-2-Amino-2-[5-trifluoromethyl-6-(trans-4-trifluoromethylcyclohexyloxy)-naphthalen-2-yl]propan-1-ol]
ED50: < 0.5 mg/kg

(R)-2-Amino-2-[6-(cis-4-pentyl-cyclohexyloxy)-naphthalen-2-yl]-propan-1-ol and (R)-2-Amino-2-[6-(trans-4-pentyl-cyclohexyloxy)-naphthalen-2-yl]-propan-1-ol [Example 272]
Lymphopenia (ED50 mg/kg): <0.5 mg/kg

CCCC[C@H]1CC[C@@H](Oc2ccc3cc([C@@](C)(N)CO)ccc3c2C(F)(F)F)CC1 [Example 17, (R)-2-amino-2-(6-(cis-4-butylcyclohexyloxy)-5-(trifluoromethyl)naphthalen-2-yl)propan-1-ol]
ED50: 0.07 mg/kg

CC(C)c1cccc(Oc2ccc3cc([C@@](C)(N)CO)ccc3c2)c1 [Example 177, (R)-2-Amino-2-(6-(3-isopropylphenoxy)naphthalen-2-yl)propan-1-ol]
ED50: > 5 mg/kg

CC(C)(C)[C@H]1CC[C@H](Oc2ccc3cc([C@@](C)(N)CO)ccc3c2-c2ccc(OC(F)(F)F)cc2)CC1 [Example 221, (R)-2-amino-2-(6-(trans-4-tert-butylcyclohexyloxy)-5-(4-(trifluoromethoxy)phenyl)naphthalen-2-yl)propan-1-ol]
ED50: > 5 mg/kg

CCc1ccc(Oc2ccc3cc([C@@](C)(N)CO)ccc3c2)cc1 [Example 176, (R)-2-Amino-2-(6-(4-ethylphenoxy)naphthalen-2-yl)propan-1-ol]
ED50: 0.5 to 5 mg/kg

CC(C)(C)[C@H]1CC[C@H](Oc2ccc3cc([C@](C)(N)CO)ccc3c2C(F)(F)F)CC1 (relative stereo) [Example 124, (S)-2-amino-2-[6-(4-trans-tert-butyl-cyclohexyloxy)-5-trifluoromethyl-naphthalen-2-yl]-propan-1-ol]
Lymphopenia (ED50 mg/kg): >5 mg/kg

C[C@](N)(CO)c1ccc2cc(OC3CCC(C4CCCC4)CC3)ccc2c1 (stereo partly drawn) [Example 94, (R)-2-Amino-2-[6-(4-cyclopentyl-cyclohexyloxy)-naphthalen-2-yl]-propan-1-ol]
ED50: 0.5 to 5 mg/kg

C[C@](N)(CO)c1ccc2cc(Oc3cc(F)cc(F)c3)ccc2c1 [Example 186, (R)-2-Amino-2-(6-(3,5-difluorophenoxy)naphthalen-2-yl)propan-1-ol]
ED50: 0.5 to 5 mg/kg

C[C@](N)(CO)c1ccc2cc(O[C@H]3CC[C@@H](c4ccccc4)CC3)ccc2c1 [Example 30, (R)-2-amino-2-(6-(cis-4-phenylcyclohexyloxy)naphthalen-2-yl)propan-1-ol]
ED50: 0.5 to 5 mg/kg

NC(CO)(CO)c1ccc2cc(Oc3cccc(OCc4ccccc4)c3)ccc2c1 [Example 194, 2-Amino-2-(6-(3-(benzyloxy)phenoxy)naphthalen-2-yl)propane-1,3-diol]
ED50: < 0.5 mg/kg

C[C@](N)(CO)c1ccc2cc(Oc3ccc(C(F)(F)F)cc3)ccc2c1 [Example 181, (R)-2-Amino-2-(6-(4-(trifluoromethyl)phenoxy)naphthalen-2-yl)propan-1-ol]
ED50: > 5 mg/kg

Cc1cc(C)cc(Oc2ccc3cc([C@@](C)(N)CO)ccc3c2)c1 [Example 187, (R)-2-Amino-2-(6-(3,5-dimethylphenoxy)naphthalen-2-yl)propan-1-ol]
ED50: 0.5 to 5 mg/kg

Cc1c(O[C@H]2CC[C@H](C(C)(C)C)CC2)ccc2cc([C@@](C)(N)CO)ccc12 [Example 217, (R)-2-amino-2-(6-(trans-4-tert-butylcyclohexyloxy)-5-methylnaphthalen-2-yl)propan-1-ol]
ED50: < 0.5 mg/kg

CC(C)[C@H]1CC[C@@H](Oc2ccc3cc([C@@](C)(N)CO)ccc3c2C(F)(F)F)CC1 [Example 167, (R)-2-Amino-2-(6-(cis-4-isopropylcyclohexyloxy)-5-(trifluoromethyl)naphthalen-2-yl)propan-1-ol]
ED50: < 0.5 mg/kg

C[C@](N)(CO)c1ccc2cc(Oc3cccc(Br)c3)ccc2c1 [Example 174, (R)-2-Amino-2-(6-(3-bromophenoxy)naphthalen-2-yl)propan-1-ol]
ED50: > 5 mg/kg

CCCC[C@H]1CC[C@@H](Oc2ccc3cc(C(N)(CO)CO)ccc3c2)CC1 [Example 14, 2-amino-2-(6-(cis-4-butylcyclohexyloxy)naphthalen-2-yl)propane-1,3-diol]
ED50: > 5 mg/kg

CC(C)[C@H]1CC[C@H](Oc2ccc3cc([C@@](C)(N)CO)ccc3c2C(F)(F)F)CC1 [Example 168, (R)-2-Amino-2-(6-(trans-4-isopropylcyclohexyloxy)-5-(trifluoromethyl)naphthalen-2-yl)propan-1-ol]
ED50: < 0.5 mg/kg

CC(C)(C)[C@H]1CC[C@H](Oc2ccc3cc(C4(N)COC4)ccc3c2)CC1 [Example 151, 3-(6-(trans-4-tert-Butylcyclohexyloxy)naphthalen-2-yl)oxetan-3-amine]
ED50: 0.5 to 5 mg/kg

(R)-2-amino-2-(6-(3-(benzyloxy)phenylthio)naphthalen-2-yl)propan-1-ol [Example 155]
Lymphopenia (ED50 mg/kg): <0.5 mg/kg

C[C@](N)(CO)c1ccc2c(C(F)(F)F)c(O[C@H]3CC[C@H](C4CCCCC4)CC3)ccc2c1 [Example 163, (R)-2-Amino-2-(6-(trans-4-cyclohexylcyclohexyloxy)-5-(trifluoromethyl)naphthalen-2-yl)propan-1-ol]
ED50: < 0.5 mg/kg

NC(CO)(CO)c1ccc2cc(Oc3cccc(OCCc4ccccc4)c3)ccc2c1 [Example 197, 2-Amino-2-(6-(3-phenethoxyphenoxy)naphthalen-2-yl)propane-1,3-diol]
ED50: < 0.5 mg/kg

C[C@](N)(CO)c1ccc2cc(Oc3cccc(Cl)c3)ccc2c1 [Example 172, (R)-2-Amino-2-(6-(3-chlorophenoxy)naphthalen-2-yl)propan-1-ol]
ED50: 0.5 to 5 mg/kg

CC(C)(C)[C@H]1CC[C@H](Oc2c(Cl)c(Cl)c3cc([C@@](C)(N)CO)ccc3c2Cl)CC1 [Example 240, (R)-2-amino-2-(6-(trans-4-tert-butylcyclohexyloxy)-5,7,8-trichloronaphthalen-2-yl)propan-1-ol]
ED50: > 5 mg/kg

C=Cc1c(O[C@H]2CC[C@H](C(C)(C)C)CC2)ccc2cc([C@@](C)(N)CO)ccc12 [Example 219, (R)-2-amino-2-(6-(trans-4-tert-butylcyclohexyloxy)-5-vinylnaphthalen-2-yl)propan-1-ol]
ED50: < 0.5 mg/kg

C[C@](N)(CO)c1ccc2cc(Oc3ccc(F)c(F)c3)ccc2c1 [Example 183, (R)-2-Amino-2-(6-(3,4-difluorophenoxy)naphthalen-2-yl)propan-1-ol]
ED50: 0.5 to 5 mg/kg

NC(CO)(CO)c1ccc2cc(Oc3ccc(Oc4ccccc4)cc3)ccc2c1 [Example 245, 2-amino-2-(6-(4-phenoxyphenoxy)naphthalen-2-yl)propane-1,3-diol]
ED50: < 0.5 mg/kg
